{
  "source": "patent US9907787B2",
  "about": "“Method of supplementing the diet and ameliorating oxidative stress” (priority 2008, dated 2018)",
  "key": {"[1]": {"settings": "water soluble antioxidants and chelators, rapidly cleared by kidneys or liver; cited from earlier work"}, "[2]": {"experiment": "Affinity for heavy metals", "assay_type": "binding", "from_the_text": "(§1) Also, copper and zinc are primarily found in a water environment (hydrophilic aspects) of the body whereas OSR partitions into the hydrophobic aspects. This separation may play a role in the lack of OSR removing copper and zinc. However, in diseases with excess free copper, iron or zinc, OSR is likely to be able to bind and decrease the toxicity of these metals."}, "Storage stability": {"experiment": "Storage stability", "assay_type": "physicochemical", "settings": "sealed plastic test tubes, sixteen months, room temperature", "from_the_text": "OSR also has excellent stability when stored in sealed plastic test tubes with less than three percent breakdown occurring at sixteen months of storage at room temperature. Most antioxidants break down very rapidly when exposed to air or water but OSR is exceptional in this regards."}, "[3]": {"tested_on": "glutathione-S-transferase (GST)", "experiment": "Effect of OSR on Glutathione-S-transferase (GST) levels", "assay_type": "in vivo, human", "settings": "for Glutathione-S-transferase (GST) levels: lines = patients 1-10", "from_the_text": "GST is an enzyme that uses glutathione (GSH) as a substrate to covalently modify certain organic toxins by ‘transferring GSH’ to a P-450 enzyme oxidized site on the toxin. […] GST was non-detectable in all 10 patients at the start of the study and was detectable in all 10 patients at the end of the study. The change in the redox level most likely had something to do with the appearance of this enzyme. It is a common mechanism in cellular regulation that the lowering of a substrate (e.g. glutathione) needed at several locations results in the suppressed expression of the enzyme (e.g. GST) that use this substrate for reactions that are less necessary to support survival. The buildup of GSH most likely induces the expression of GST and this buildup accounts for the induction of new GST synthesis."}, "[4]": {"experiment": "Effect of OSR treatment on essential elements", "assay_type": "in vivo", "settings": "treatment with OSR", "from_the_text": "as §1"}, "[5]": {"experiment": "Kinetic study: plasma half-life, tissue distribution and clearance", "assay_type": "in vivo", "from_the_text": "The mitochondria, especially if abnormal or damaged by heavy metals or radiation, are the main producers of the free radicals that cause cellular damage to the membranes, proteins or nucleic acids (DNA, RNA). Therefore, OSR is positioned to intercept these free radicals before they do damage and the ORAC scores show us OSR is exceptional at scavenging these toxic chemicals. Thus, OSR operates as an antioxidant in a more efficient and effective level than antioxidants generally known in the art.\nIt should also be appreciated that OSR is cleared from all tissues tested by over 90% twenty-four hours after ingestion. Therefore, no toxic build-up of OSR occurs in the mammal.\nPreferred dosage forms for oral administration include the isolated compounds in powder form. Such powders may be taken up with a swoop and spread onto food or mixed into drinks for easy consumption without bad taste. The pure compounds may be pre-mixed with certain dietary ingredients such as butter, olive oil, corn oil, albumin, whey or other foods which will help in absorption of the compounds by the mere process of dissolving them. Using OSR dissolved in corn oil, it was determined that it takes two hours post ingestion for the maximum level of OSR to show up in the plasma of all tested animals."}, "Solubility": {"experiment": "Solubility", "assay_type": "physicochemical", "from_the_text": "In fact, the compounds in U.S. Pat. No. 6,586,600 were mostly ineffective at treating environmental contaminations of heavy metal due to their insolubility in water and many organic solvents. The conventional wisdom is that any metal chelator has to be water soluble to be effective is evidenced by the currently known chelators such as dimercapopropane sulfonate (DMPS), dimercaptosuccinic acid (DMSA), ethylenediaminetetraacetic acid (EDTA) and even the natural mammalian heavy metal chelator glutathione. These observations made the use of the compounds questionable for any mammalian based treatment regarding the removal of charged toxic metals like Hg^2+, Pb^2+, and Cd^2+ which are water soluble and would most likely be located in the aqueous aspects of mammalian tissues. Additionally, any compound that is not water soluble nor soluble in most organic solvents would not be expected to pass the intestinal endothelial membrane barrier and enter the blood and tissues of the mammal. Further, the compound(s) would have to cross the cell membrane to be able to interact with and bind the intracellular located heavy metal responsible for the toxic effects. It would also have to be able to cross the blood brain barrier to be effective for any neurotoxic heavy metal effect. […]"}, "[6]": {"experiment": "ORAC (oxygen-radical-absorbance-capacity) score", "assay_type": "biochemical", "experimental": "As should be appreciated from the following table, OSR has an exceptionally high ORAC (oxygen-radical-absorbance-capacity) score.\nThe ORAC score is measured by a compound or elixer's ability to intercept reactive oxygen species, free radicals preventing them from oxidizing a water soluble fluorescent vitamin-E derivative. OSR has the ability in the body to protect vitamin-E (a fat soluble vitamin) and other fat soluble natural compounds such as lipids from damage by oxidizing free radicals since it partitions into the hydrophobic areas where they exist and reacts with free radicals more effectively than they do, thereby scavenging the hydroxyl free radicals and preventing them from doing damage. […] OSR is more capable of reacting with these radicals than vitamin-E and, accordingly, OSR should provide even better protection. In fact, OSR should salvage vitamin E and D in vivo."}, "blood GSH, GSSG": {"tested_on": "blood GSH, GSSG", "experiment": "Effect of daily OSR on blood GSH, GSSG levels and GSH/GSSG ratios", "assay_type": "in vivo, human", "settings": "10 subjects, 200 mg of OSR per day", "from_the_text": "Effect of daily administration of OSR on key biochemical parameters. […] Also, the major improvement seemed to result from the very significant decrease in oxidized glutathione (GSSG) instead of a total increase in all forms of glutathione. This would be best explained by OSR scavenging hydroxyl free radicals salvaging the GSH by preventing its oxidation to GSSG. This change occurred in 10 of 10 subjects.\nAll were in reasonable health with no obvious bacterial infections. GSH/GSSG ratios increased in all primarily due to the drop in GSSG levels in all subjects. […] The average tGSH/GSSG ratio almost doubled caused by a near average halving of the GSSG levels."}, "[7]": {"tested_on": "cysteine, methionine, homocysteine", "experiment": "Effect of OSR on blood sulfur containing amino acid levels", "assay_type": "in vivo, human", "settings": "10 patients, two month period", "from_the_text": "To determine if OSR changed the level of cysteine, the rate limiting amino acid in glutathione synthesis, the level of all thiol containing amino acids was done for the same 10 patients for a two month period. […] The homocysteine level was high in patient #9, a person diagnosed with Alzheimer's disease, over the two month testing their levels dropped to near normal levels.\nThe possible exception was the homocysteine levels in patient #9, a person with Alzheimer's disease."}, "[8]": {"experiment": "Toxicity / LD-50 in test animals", "assay_type": "in vivo", "from_the_text": "In fact, OSR is so non-toxic that an LD-50 could not be identified and was established as greater than 5 grams per kilogram body weight."}, "[9]": {"tested_on": "rats injected with mercuric chloride", "experiment": "Protective effects of OSR on rats injected with mercuric chloride", "assay_type": "in vivo, rat", "set-up": "key to survival (Alive/Dead): A = Alive; D = Dead", "settings": "for survival (Alive/Dead): Rat 1-3", "experimental": "Protective effects of OSR on rats injected subcutaneously with mercuric chloride.\nOur experiments were designed around this value.\nFor each of the experiments nine, 5-7 weeks old, rats were chosen. They were divided into three groups and they were fed rat chow and water ad libitum.\nThe mercuric chloride was dissolved in PBS/DMSO and injected intraperitoneally at time zero.\nThe compound OSR was dissolved in 0.75 ml DMSO and 0.25 ml PBS. Injection was subcutaneous under the skin covering the stomach. These were done 20 min. after the injection of the mercuric chloride."}, "rats": {"tested_on": "rats", "settings": "intraperitoneal; cited from earlier work"}},
  "note": "Where “and” joins values, the source holds several entries; their conditions need not be identical. Equal entries are not always repeated. Entries after “also recorded” stand apart in the source; their conditions may differ.",
  "data": [
    {"molecule": "O=S(=O)(O)CC(S)CS", "note": "(centres unmarked) [DMPS, dimercaptopropane sulfonate]", "values": [
      {"measurement": "half-life", "setting": "[1]", "result": "less than one to two"}
    ]},
    {"molecule": "O=C(O)C(S)C(S)C(=O)O", "note": "(centres unmarked) [DMSA, dimercaptosuccinic acid]", "values": [
      {"measurement": "half-life", "setting": "[1]", "result": "less than one to two"}
    ]},
    {"molecule": "O=C(NCCS)c1cccc(C(=O)NCCS)c1", "note": "[OSR, N,N′-bis(2-mercaptoethyl)isophthalamide]", "values": [
      {"measurement": "affinity for mercury, lead, arsenic and cadmium", "setting": "[2]", "result": "exceptionally high affinity"},
      {"measurement": "breakdown on storage", "setting": "Storage stability", "result": "less than three"},
      {"measurement": "glutathione-S-transferase (GST), result in words", "setting": "[3]; 10 patients, after OSR treatment", "result": "consistently elevated in all 10 patients"},
      {"measurement": "Glutathione-S-transferase (GST) levels", "setting": "[3]; time 1 month", "result": "0.58 ng/mL and 0.46 ng/mL"},
      {"measurement": "Glutathione-S-transferase (GST) levels", "setting": "[3]; time 2 months", "result": "0.53 ng/mL and 0.43 ng/mL and 0.37 ng/mL and 0.32 ng/mL and 0.63 ng/mL and 0.48 ng/mL"},
      {"measurement": "lowering of essential elements copper, iron and zinc", "setting": "[4]", "result": "does not result in a significant lowering"},
      {"measurement": "OSR levels relative to peak values seen at hour 2", "setting": "[5]; 24 hours post-ingestion, OSR dissolved in corn oil", "result": "4-12%"},
      {"measurement": "time post ingestion for the maximum level of OSR in plasma", "setting": "[5]; OSR dissolved in corn oil, all tested animals", "result": "two"},
      {"measurement": "blood brain barrier / tissue entry", "setting": "[5]; kinetic study, all tissues tested", "result": "crosses the blood brain barrier"},
      {"measurement": "half-life in plasma", "setting": "[5]; plasma of test animals", "result": "about six to seven"},
      {"measurement": "cleared from all tissues tested", "setting": "[5]; twenty-four hours after ingestion", "result": "over 90%"},
      {"measurement": "lipid solubility", "setting": "Solubility", "result": "lipid soluble"},
      {"measurement": "ORAC Score", "setting": "[6]", "result": "192,400 μmoleTE/100 g"},
      {"measurement": "GSH levels, result in words", "setting": "blood GSH, GSSG; two months", "result": "increased slightly in 7 of 10"},
      {"measurement": "redox ratio (GSH/GSSG), result in words", "setting": "blood GSH, GSSG; whole blood, OSR taken regularly, approximately 60 days", "result": "significantly increase; also recorded: dramatically improved"},
      {"measurement": "changes in cysteine, methionine or homocysteine levels, result in words", "setting": "[7]", "result": "No significant consistent changes"},
      {"measurement": "LD-50", "setting": "[8]", "result": "greater than 5 grams per kilogram body weight"},
      {"measurement": "toxicity", "setting": "[8]; levels up to 5,000 mg per day", "result": "without toxicity"},
      {"measurement": "survival (Alive/Dead)", "setting": "[9]; 0 hr, mercury chloride 2 mg/kg body weight, OSR 0.5 millimoles/kg subcutaneous 20 min after", "result": "A"},
      {"measurement": "survival (Alive/Dead)", "setting": "[9]; 0 hr, mercury chloride 14 mg/kg body weight, OSR 1 mM/kg body weight subcutaneous 20 min after", "result": "A"},
      {"measurement": "survival (Alive/Dead)", "setting": "[9]; 1 week, mercury chloride 2 mg/kg body weight, OSR 0.5 millimoles/kg subcutaneous 20 min after", "result": "A"},
      {"measurement": "survival (Alive/Dead)", "setting": "[9]; 1 week, mercury chloride 14 mg/kg body weight, OSR 1 mM/kg body weight subcutaneous 20 min after", "result": "A"},
      {"measurement": "survival (Alive/Dead)", "setting": "[9]; 6 hr, mercury chloride 2 mg/kg body weight, OSR 0.5 millimoles/kg subcutaneous 20 min after", "result": "A"},
      {"measurement": "survival (Alive/Dead)", "setting": "[9]; 6 hr, mercury chloride 14 mg/kg body weight, OSR 1 mM/kg body weight subcutaneous 20 min after", "result": "A"},
      {"measurement": "survival (Alive/Dead)", "setting": "[9]; 12 hr, mercury chloride 2 mg/kg body weight, OSR 0.5 millimoles/kg subcutaneous 20 min after", "result": "A"},
      {"measurement": "survival (Alive/Dead)", "setting": "[9]; 12 hr, mercury chloride 14 mg/kg body weight, OSR 1 mM/kg body weight subcutaneous 20 min after", "result": "A"},
      {"measurement": "survival (Alive/Dead)", "setting": "[9]; 24 hr, mercury chloride 2 mg/kg body weight, OSR 0.5 millimoles/kg subcutaneous 20 min after", "result": "A"},
      {"measurement": "survival (Alive/Dead)", "setting": "[9]; 24 hr, mercury chloride 14 mg/kg body weight, OSR 1 mM/kg body weight subcutaneous 20 min after", "result": "A"},
      {"measurement": "survival (Alive/Dead)", "setting": "[9]; 48 hr, mercury chloride 2 mg/kg body weight, OSR 0.5 millimoles/kg subcutaneous 20 min after", "result": "A"},
      {"measurement": "survival (Alive/Dead)", "setting": "[9]; 48 hr, mercury chloride 14 mg/kg body weight, OSR 1 mM/kg body weight subcutaneous 20 min after", "result": "D and A"},
      {"measurement": "protection from mercury induced toxic effects (blood in urine and feces, death, weight loss, ataxia)", "setting": "[9]; rats given 0.6 lethal dose of mercury chloride, 10-fold excess of OSR twenty-thirty minutes later", "result": "protected from mercury induced toxic effects"},
      {"measurement": "excretion route of OSR bound mercury", "setting": "[9]; rats given mercury chloride and OSR", "result": "primarily excreted through the fecal route"},
      {"measurement": "protection from death", "setting": "[9]; rats injected with 1-5 levels (or higher) of lethal doses of mercury chloride, single 10-fold excess of OSR dissolved in DMSO", "result": "protected from death"}
    ]},
    {"molecule": "N[C@@H](CCC(=O)N[C@@H](CS)C(=O)NCC(=O)O)C(=O)O", "note": "[glutathione]", "values": [
      {"measurement": "half-life", "setting": "[1]", "result": "less than one to two"}
    ]},
    {"molecule": "[Cl][Hg][Cl]", "note": "[mercury chloride]", "values": [
      {"measurement": "LD 50", "setting": "rats", "result": 3.2, "unit": "mg/kg body weight"}
    ]},
    {"molecule": "Oc1ccc(C=Cc2cc(O)cc(O)c2)cc1", "note": "[resveratrol]", "values": [
      {"measurement": "half-life", "setting": "[1]", "result": "less than one to two"}
    ]}
  ]
}
